“And” between values parts separate entries of the source, which are not always exact repeats. Identical values can stand only once.
System: 777334-354-R2-J4-PDC tumor spheroids with HUVEC/MSC, viability
Assay: Anticancer human tumor 777334-354-R2-J4-PDC patient-derived pancreatic adenocarcinoma cell line growth inhibition [GQUAD]
Conditions: for viability, T/C: stronger effect = lower value; active = viability on the fitted dose curve at most 10% of control; inactive = the rest
Source text: DNA G-quadruplex Stabilizer Agents in Combinations in Complex Spheroids
A high-throughput screen of multi-cell type tumor spheroids was designed to identify active combinations of DNA G-quadruplex stabilizer agents and targeted small molecules. Complex spheroids include a stromal component modeled by human endothelial cells (HUVEC) and fibroblasts modeled by human mesenchymal stem cells (MSCs). The concentration ranges selected for each drug and investigational agent were based upon clinically achievable concentrations if the clinical Cmax of the agent was known.
Compounds. The drugs and investigational agents: pidnarulex (CX-5461; NSC782164), APTO-253 (NSC789042), BRACO-19 (NSC847499), peposertib (NSC802822), ceralasertib (NSC780249), elimusertib (NSC800525), camonsertib (NSC841442), AZD-1390 (NSC803789), olaparib (NSC753686), talazoparib (NSC767125), ART-558 (NSC835418), sotorasib (NSC818433), MRTX-1133 (NSC836407), SN-38 (NSC673596), topotecan (NSC609699), etoposide (NSC141540), doxorubicin (NSC123127), gemcitabine (NSC613327), 5-fluorouracil (NSC19893), paclitaxel (NSC125973), vemurafenib (NSC761431), panobinostat (NSC761190), R-306465 (JNJ-16241199; NSC773264), adavosertib (NSC754352), TP-3654 (NSC805149), carboplatin (NSC241240), KSQ-4279 (NSC840948), and staurosporine (NSC755774) were obtained from the National Cancer Institute (NCI) Developmental Therapeutics Program Chemical Repository (34). The FDA-approved anticancer drug set is available from the NCI Developmental Therapeutics Program. […] The stock solutions were prepared in dimethyl sulfoxide (DMSO, Sigma-Aldrich, St. Louis, MO, cat. D2650) at 800-fold the tested concentration and stored at -70 degrees C prior to their use. All drugs and investigational agents were tested over a range starting from a high concentration at or near the clinical Cmax and decreasing in half-log increments. If the clinical Cmax for an agent had not been determined, the highest concentration tested was 10 microM.
2.3 Cell Culture. All cells were maintained in an incubator at 37 degrees C and 5% CO2 with 95% humidity. The PDC lines were cultured according to standard operating procedures established by the NCI PDMR. All PDCs were thawed and cultured in Matrigel-coated flasks prepared with a working solution of 1X Ham's F-12 nutrient mix, without supplementation (Invitrogen, cat. 11765054), 100 U/mL penicillin-streptomycin (Invitrogen, cat. 15140122), and 2.5% Matrigel (Corning Inc., cat. 354248) for the first three passages. The 857933-349-R-J2-PDC line was cultured in 6C/Colon 1B media, which includes advanced DMEM/F-12 (Thermo Fisher Scientific, cat. 12634028), 10 mM HEPES (Thermo Fisher Scientific, cat. 15630080), 1X GlutaMAX supplement (Thermo Fisher Scientific, cat. 35050061), 0.1 mg/mL primocin (InvivoGen, cat. ant-pm-2), 10% defined fetal bovine serum, heat inactivated (HyClone Laboratories Inc., cat. SH30070.03HI), 50% L-WRN conditioned media (ATCC, cat. CRL-3276), 1.25 mM N-Acetyl-L-cysteine (Sigma-Aldrich, cat. A9165), 10 mM nicotinamide (Sigma-Aldrich, cat. N0636), 1X B-27 supplement (Thermo Fisher Scientific, cat. 17504044), 1X N-2 supplement (Thermo Fisher Scientific, cat. 17502048), 10 microM Y-27632 dihydrochloride (Tocris Bioscience, cat. 1254), and 50 ng/mL human EGF recombinant protein (Thermo Fisher Scientific, cat. PHG0311). The 485176-168-R4-J1-PDC line was cultured in Panc media, which includes all 6C/Colon 1B media components plus 100 ng/mL human FGF-10 (Thermo Fisher Scientific, cat. 100-26), 500 nM SB-431542 (Selleckchem, cat. S1067), and gastrin (Tocris, cat. 3006).
[…]
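Note: spheroids exposed to compounds for 7 days before readout.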

CC[C@@]1(O)C(=O)OCc2c1cc1n(c2=O)Cc2cc3c(CN(C)C)c(O)ccc3nc2-1 + Cc1cnc(CNC(=O)c2c(=O)c3ccc(N4CCCN(C)CC4)nc3n3c2sc2ccccc23)cn1
222 nM: IC50 (curve of first compound, second compound 0.316 µM)
241 nM: IC50 (curve of first compound, second compound 0.1 µM)
233 nM: IC50 (curve of first compound, second compound 1 µM)
225 nM: IC50 (curve of first compound, second compound 3.16 µM)
172 nM: IC50 (curve of first compound, second compound 0.0316 µM)
78.7 nM: IC50 (curve of first compound, second compound 10 µM)
inactive: viability, T/C (second compound 0.0316 µM, first compound 0.000999 µM) 90.1% | viability, T/C (second compound 0.0316 µM, first compound 0.00316 µM) 79.8% | viability, T/C (second compound 0.0316 µM, first compound 0.00999 µM) 95.2% | viability, T/C (second compound 0.0316 µM, first compound 0.0316 µM) 80.7% | viability, T/C (second compound 0.0316 µM, first compound 0.0999 µM) 59.4% | viability, T/C (second compound 0.0316 µM, first compound 0.316 µM) 39.7% | viability, T/C (second compound 0.1 µM, first compound 0.000999 µM) 102% | viability, T/C (second compound 0.1 µM, first compound 0.00316 µM) 74.7% | viability, T/C (second compound 0.1 µM, first compound 0.00999 µM) 83.1% | viability, T/C (second compound 0.1 µM, first compound 0.0316 µM) 66.8% | viability, T/C (second compound 0.1 µM, first compound 0.0999 µM) 60.8% | viability, T/C (second compound 0.1 µM, first compound 0.316 µM) 45% | viability, T/C (second compound 0.316 µM, first compound 0.000999 µM) 73.8% | viability, T/C (second compound 0.316 µM, first compound 0.00316 µM) 76.3% | viability, T/C (second compound 0.316 µM, first compound 0.00999 µM) 76.7% | viability, T/C (second compound 0.316 µM, first compound 0.0316 µM) 70.1% | viability, T/C (second compound 0.316 µM, first compound 0.0999 µM) 59.3% | viability, T/C (second compound 0.316 µM, first compound 0.316 µM) 46% | viability, T/C (second compound 1 µM, first compound 0.000999 µM) 64.7% | viability, T/C (second compound 1 µM, first compound 0.00316 µM) 74.8% | viability, T/C (second compound 1 µM, first compound 0.00999 µM) 76% | viability, T/C (second compound 1 µM, first compound 0.0316 µM) 69.5% | viability, T/C (second compound 1 µM, first compound 0.0999 µM) 57% | viability, T/C (second compound 1 µM, first compound 0.316 µM) 47% | viability, T/C (second compound 3.16 µM, first compound 0.000999 µM) 56.8% | viability, T/C (second compound 3.16 µM, first compound 0.00316 µM) 67.7% | viability, T/C (second compound 3.16 µM, first compound 0.00999 µM) 62.2% | viability, T/C (second compound 3.16 µM, first compound 0.0316 µM) 63.3% | viability, T/C (second compound 3.16 µM, first compound 0.0999 µM) 54.9% | viability, T/C (second compound 3.16 µM, first compound 0.316 µM) 47.4% | viability, T/C (second compound 10 µM, first compound 0.000999 µM) 56.1% | viability, T/C (second compound 10 µM, first compound 0.00316 µM) 57.9% | viability, T/C (second compound 10 µM, first compound 0.00999 µM) 60.2% | viability, T/C (second compound 10 µM, first compound 0.0316 µM) 53.2% | viability, T/C (second compound 10 µM, first compound 0.0999 µM) 47.8% | viability, T/C (second compound 10 µM, first compound 0.316 µM) 38.9%

C=CC(=O)N1CCN(c2nc(=O)n(-c3c(C)ccnc3C(C)C)c3nc(-c4c(O)cccc4F)c(F)cc23)C(C)C1 (centres undefined)
> 10000 nM: IC50 (curve of compound)
inactive: viability, T/C (compound 0.0316 µM) 87.7% and 105% and 106% | viability, T/C (compound 0.1 µM) 103% and 97.4% and 81.4% | viability, T/C (compound 0.316 µM) 95.8% and 89.4% and 109% | viability, T/C (compound 1 µM) 96.2% and 111% and 105% | viability, T/C (compound 3.16 µM) 113% (2×) and 100% | viability, T/C (compound 10 µM) 115% and 100% and 101%
